Results: ChEMBL document CHEMBL1201862, “PubChem BioAssay data set” (2004)
Calls of active or inactive are those of the source.

Columns and labels:
Paired box protein Pax-8 = Paired box protein Pax-8 (Homo sapiens, UniProt Q06710); assay: inhibitors of PAX8-driven TPO luciferase reporter, dose response, RMG-I cells, cherry-pick (AID 687027); assay type: functional, cell-based;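 further: luciferase reporter driven by Pax8 target thyroperoxidase promoter measured by SteadyGlo luminescence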
[1] = IOSE-T80 ovarian epithelial cell cytotoxicity, dose response, cytotoxicity control for PAX8 inhibitor project, plate reader, dry powder samples (AID 743045); assay type: functional, cell-based
[2] = NIH:OVCAR-3 ovarian cancer cell cytotoxicity, dose response, PAX8 inhibitor project, plate reader, dry powder samples (AID 743044); assay type: functional, cell-based
[3] = cytotoxicity in OVCAR4 cells, dose response, cytotoxicity control for PAX8 inhibitor project, cell-based, plate reader, dry powder, SA11 (AID 743150); assay type: functional; conditions: OVCAR-4
[4] = cytotoxicity in COV434 cells, dose response, cytotoxicity control for PAX8 inhibitor project, cell-based, plate reader, dry powder, SA7 (AID 743145); assay type: functional
[5] = cytotoxicity in OV-90 ovarian cancer cells, dose response, PAX8 inhibitor project, cell-based, plate reader, dry powder, SA8 (AID 743149); assay type: functional
[6] = cytotoxicity dependent on PAX8, dose response, cell-based, plate reader, dry powder (AID 743049); assay type: functional
[7] = biological target: FAD-linked sulfhydryl oxidase ALR (Homo sapiens, UniProt P55789); assay: inhibitors of human ALR sulfhydryl oxidase, dose response, biochemical, H2O2 detection, luminescence, cherry-pick (AID 493248)
Sequence of FAD-linked sulfhydryl oxidase ALR (P55789 whole entry): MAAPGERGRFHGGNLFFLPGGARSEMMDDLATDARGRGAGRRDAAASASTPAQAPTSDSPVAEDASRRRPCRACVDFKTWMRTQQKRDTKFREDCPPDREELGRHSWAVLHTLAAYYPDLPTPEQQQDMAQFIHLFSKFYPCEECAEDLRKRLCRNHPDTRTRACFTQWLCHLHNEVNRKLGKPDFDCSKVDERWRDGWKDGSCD

HeLa = assay: HeLa cell cytotoxicity, dose response, cytotoxicity control for MITF activator project, CellTiter-Glo luminescence, cherry-pick samples (AID 540259); assay type: functional, cell-based; conditions: Homo sapiens
[8] = biological target: T1, Methionyl-tRNA synthetase, putative (Trypanosoma brucei brucei, UniProt Q38C91); assay type: functional, Trypanosoma brucei brucei strain 927/4 GUTat10.1
T1 sequence (Q38C91 whole entry): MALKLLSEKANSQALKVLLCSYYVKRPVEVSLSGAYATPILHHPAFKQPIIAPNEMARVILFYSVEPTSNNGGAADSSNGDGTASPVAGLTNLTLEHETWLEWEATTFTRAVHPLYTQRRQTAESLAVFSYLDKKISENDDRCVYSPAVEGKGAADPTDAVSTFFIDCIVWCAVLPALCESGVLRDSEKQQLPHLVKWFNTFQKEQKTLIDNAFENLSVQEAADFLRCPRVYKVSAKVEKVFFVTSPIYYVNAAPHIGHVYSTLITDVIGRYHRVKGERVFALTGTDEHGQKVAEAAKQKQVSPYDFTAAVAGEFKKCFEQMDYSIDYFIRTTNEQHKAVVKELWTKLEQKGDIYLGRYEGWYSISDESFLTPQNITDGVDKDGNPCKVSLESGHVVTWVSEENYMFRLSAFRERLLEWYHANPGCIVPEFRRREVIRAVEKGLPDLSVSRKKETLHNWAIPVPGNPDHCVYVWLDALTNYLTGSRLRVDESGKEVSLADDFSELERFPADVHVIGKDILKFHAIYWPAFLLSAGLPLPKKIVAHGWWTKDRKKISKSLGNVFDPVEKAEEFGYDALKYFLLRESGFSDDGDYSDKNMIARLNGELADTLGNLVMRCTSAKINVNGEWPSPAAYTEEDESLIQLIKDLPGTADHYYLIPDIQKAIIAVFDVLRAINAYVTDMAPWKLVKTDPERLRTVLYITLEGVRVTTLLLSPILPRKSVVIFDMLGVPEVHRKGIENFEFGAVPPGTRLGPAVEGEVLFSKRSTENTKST

[9] = Counterscreen for inhibitors of Trypanosoma brucei methionyl tRNA synthetase (MetRS): Luminescence-based cell-based high throughput dose response assay to identify compounds that are cytotoxic to Jurkat human T lymphocyte cells.; assay type: functional
[10] = biological target: T1, Methionyl-tRNA synthetase, putative; assay type: functional, Trypanosoma brucei brucei strain 927/4 GUTat10.1; remark: listed apart in the source
[11] = HeLa cell cytotoxicity, dose response, cytotoxicity control for MgcRacGAP inhibitor project (AID 624300); assay type: functional
[12] = biological target: T2, Rac GTPase-activating protein 1 (Homo sapiens, UniProt Q9H0H5); assay: MgcRacGAP GTPase-activating activity inhibitors, confirmation, biochemical, ADP Hunter fluorescence, primary and confirmatory (AID 624330); assay type: functional
T2 sequence (Q9H0H5 whole entry): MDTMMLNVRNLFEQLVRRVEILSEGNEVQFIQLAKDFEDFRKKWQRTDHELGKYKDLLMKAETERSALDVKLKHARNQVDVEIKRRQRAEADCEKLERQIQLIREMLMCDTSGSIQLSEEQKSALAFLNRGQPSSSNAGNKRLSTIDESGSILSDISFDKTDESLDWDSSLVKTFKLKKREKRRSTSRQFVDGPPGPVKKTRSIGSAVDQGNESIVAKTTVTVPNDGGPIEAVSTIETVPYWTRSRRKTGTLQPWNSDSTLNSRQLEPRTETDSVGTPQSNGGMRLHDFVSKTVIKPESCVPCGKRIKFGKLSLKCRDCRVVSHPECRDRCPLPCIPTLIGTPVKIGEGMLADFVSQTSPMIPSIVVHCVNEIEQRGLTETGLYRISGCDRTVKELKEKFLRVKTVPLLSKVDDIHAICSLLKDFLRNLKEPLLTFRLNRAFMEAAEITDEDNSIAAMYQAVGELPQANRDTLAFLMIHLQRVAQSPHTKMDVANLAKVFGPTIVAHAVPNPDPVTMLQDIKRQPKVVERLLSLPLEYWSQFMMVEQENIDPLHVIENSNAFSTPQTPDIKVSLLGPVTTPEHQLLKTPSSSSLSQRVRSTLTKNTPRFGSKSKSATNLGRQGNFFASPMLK

[13] = biological target: SWI/SNF-related matrix-associated actin-dependent regulator of chromatin subfamily A member 2 (Homo sapiens, UniProt P51531); assay: Luminescence-based cell-based high throughput dose response assay to identify activators of the function of SWI/SNF related, matrix associated, actin dependent regulator of chromatin, subfamily a, member 2 (SMARCA2, BRM).; assay type: functional
Sequence of SWI/SNF-related matrix-associated actin-dependent regulator of chromatin subfamily A member 2 (P51531 whole entry): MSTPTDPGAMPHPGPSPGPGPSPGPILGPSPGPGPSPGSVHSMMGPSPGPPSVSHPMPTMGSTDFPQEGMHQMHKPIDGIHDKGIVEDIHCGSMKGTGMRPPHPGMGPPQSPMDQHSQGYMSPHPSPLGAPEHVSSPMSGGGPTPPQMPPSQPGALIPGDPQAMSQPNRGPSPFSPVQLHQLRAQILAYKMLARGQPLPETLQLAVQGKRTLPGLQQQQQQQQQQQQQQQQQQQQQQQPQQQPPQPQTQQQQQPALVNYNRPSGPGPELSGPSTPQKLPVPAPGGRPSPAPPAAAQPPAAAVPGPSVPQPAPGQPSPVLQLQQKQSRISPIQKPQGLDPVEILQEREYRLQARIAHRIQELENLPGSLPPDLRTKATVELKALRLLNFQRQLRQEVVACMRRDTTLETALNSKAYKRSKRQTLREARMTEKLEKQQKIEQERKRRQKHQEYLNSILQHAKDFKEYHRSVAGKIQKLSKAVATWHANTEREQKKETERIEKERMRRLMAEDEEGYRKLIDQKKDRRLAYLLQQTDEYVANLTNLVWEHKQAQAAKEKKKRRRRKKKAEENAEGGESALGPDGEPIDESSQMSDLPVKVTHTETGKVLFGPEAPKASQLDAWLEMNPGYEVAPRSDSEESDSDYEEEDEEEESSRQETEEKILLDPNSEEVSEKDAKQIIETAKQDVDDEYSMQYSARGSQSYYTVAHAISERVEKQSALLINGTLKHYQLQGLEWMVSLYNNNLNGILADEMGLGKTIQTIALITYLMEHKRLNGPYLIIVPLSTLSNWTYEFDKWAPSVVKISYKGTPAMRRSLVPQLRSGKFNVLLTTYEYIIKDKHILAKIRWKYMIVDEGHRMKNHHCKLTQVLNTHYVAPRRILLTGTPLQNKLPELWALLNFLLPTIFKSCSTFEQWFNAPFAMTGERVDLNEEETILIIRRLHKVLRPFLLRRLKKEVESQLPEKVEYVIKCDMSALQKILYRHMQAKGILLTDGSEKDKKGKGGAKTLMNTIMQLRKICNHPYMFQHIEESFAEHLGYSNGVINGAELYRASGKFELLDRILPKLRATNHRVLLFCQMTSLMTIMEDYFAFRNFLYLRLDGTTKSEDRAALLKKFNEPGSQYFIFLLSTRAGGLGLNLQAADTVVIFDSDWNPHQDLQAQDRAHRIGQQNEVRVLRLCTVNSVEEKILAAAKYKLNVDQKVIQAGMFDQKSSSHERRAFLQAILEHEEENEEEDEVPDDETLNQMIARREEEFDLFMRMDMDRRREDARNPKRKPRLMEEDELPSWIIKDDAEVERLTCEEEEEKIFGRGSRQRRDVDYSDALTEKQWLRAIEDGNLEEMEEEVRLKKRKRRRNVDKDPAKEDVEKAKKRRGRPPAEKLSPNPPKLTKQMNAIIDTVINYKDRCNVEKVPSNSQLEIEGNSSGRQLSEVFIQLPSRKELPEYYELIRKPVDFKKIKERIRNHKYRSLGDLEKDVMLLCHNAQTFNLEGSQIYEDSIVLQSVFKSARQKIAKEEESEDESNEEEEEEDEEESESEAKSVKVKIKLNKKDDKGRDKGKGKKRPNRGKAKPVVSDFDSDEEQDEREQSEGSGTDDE

[14] = Counterscreen for activators of the function of SWI/SNF related, matrix associated, actin dependent regulator of chromatin, subfamily a, member 2 (SMARCA2, BRM): Luminescence-based cell-based high throughput dose response assay to identify non-selective compounds using the VP16 reporter assay.; assay type: functional
HEK293 = assay: HEK293T cell cytotoxicity, dose response, cytotoxicity control, ATP luminescence, cherry-pick samples (AID 687005); assay type: functional, cell-based; conditions: Homo sapiens;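 further: cells exposed to compound for 48 hours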
[15] = HEK293 Cytotoxicity Assay Measured in Cell-Based System Using Plate Reader - 7071-01_Inhibitor_Dose_CherryPick_Activity_Set2.; assay type: functional
[16] = HEp-2 cell cytotoxicity, dose response, cytotoxicity control for RSV inhibitor project, HTS (AID 2410); assay type: functional; conditions: human respiratory syncytial virus
[17] = biological target: T3, Heat shock factor protein 1 (Mus musculus, UniProt P38532); assay: inhibition of MG132-induced HSE-luciferase signal, confirmation, cell-based, NIH3T3, luminescence, dose retest (AID 2382); assay type: functional;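 further: NIH3T3 fibroblasts with HSF1-driven luciferase reporter stressed by proteasome inhibitor MG132; luminescence from HSF1-driven luciferase expression after 8 hours of MG132 stress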
T3 sequence (P38532 whole entry): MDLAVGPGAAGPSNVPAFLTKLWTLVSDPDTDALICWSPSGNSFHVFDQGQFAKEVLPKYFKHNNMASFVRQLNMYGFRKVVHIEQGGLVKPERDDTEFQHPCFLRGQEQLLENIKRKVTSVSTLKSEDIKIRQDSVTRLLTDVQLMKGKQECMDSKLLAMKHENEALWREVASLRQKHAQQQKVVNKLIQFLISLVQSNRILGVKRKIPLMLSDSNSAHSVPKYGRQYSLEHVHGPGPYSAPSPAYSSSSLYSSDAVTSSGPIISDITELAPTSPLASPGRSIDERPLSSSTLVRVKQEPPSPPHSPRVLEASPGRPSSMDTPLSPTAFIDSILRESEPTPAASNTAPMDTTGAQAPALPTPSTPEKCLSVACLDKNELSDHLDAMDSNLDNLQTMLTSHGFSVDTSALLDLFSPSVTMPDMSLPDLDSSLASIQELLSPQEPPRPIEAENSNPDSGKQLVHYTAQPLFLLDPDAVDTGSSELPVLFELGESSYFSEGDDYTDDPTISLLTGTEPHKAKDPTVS

[18] = biological target: COUP transcription factor 2 (Homo sapiens, UniProt P24468); assay: Luminescence-based cell-based high throughput dose response assay to identify inhibitors of COUP-TFII (NR2F2).; assay type: functional;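 further: HEK293 cells transiently cotransfected with COUP-TFII expression vector and reporter; luciferase reporter luminescence driven by COUP-TFII from the pX2-168 reporter plasmid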
Sequence of COUP transcription factor 2 (P24468 whole entry): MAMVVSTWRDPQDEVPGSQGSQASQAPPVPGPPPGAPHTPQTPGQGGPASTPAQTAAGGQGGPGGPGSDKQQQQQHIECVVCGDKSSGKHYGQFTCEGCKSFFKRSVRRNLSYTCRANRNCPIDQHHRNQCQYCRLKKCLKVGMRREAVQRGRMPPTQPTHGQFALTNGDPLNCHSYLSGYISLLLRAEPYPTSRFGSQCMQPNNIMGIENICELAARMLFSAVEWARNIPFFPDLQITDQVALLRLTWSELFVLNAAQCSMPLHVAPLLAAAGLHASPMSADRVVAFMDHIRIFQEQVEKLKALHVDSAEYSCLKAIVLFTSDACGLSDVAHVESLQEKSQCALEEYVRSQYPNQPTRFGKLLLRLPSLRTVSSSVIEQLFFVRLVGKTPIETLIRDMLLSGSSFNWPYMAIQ

[19] = biological target: T4, Acyl-homoserine lactone acylase PvdQ (Pseudomonas aeruginosa (strain LESB58), UniProt Q9I194); assay: P. aeruginosa PvdQ acylase inhibitors, dose response, biochemical, fluorescence, plate reader and imaging, cherry-picks (AID 493231)
T4 sequence (Q9I194 whole entry): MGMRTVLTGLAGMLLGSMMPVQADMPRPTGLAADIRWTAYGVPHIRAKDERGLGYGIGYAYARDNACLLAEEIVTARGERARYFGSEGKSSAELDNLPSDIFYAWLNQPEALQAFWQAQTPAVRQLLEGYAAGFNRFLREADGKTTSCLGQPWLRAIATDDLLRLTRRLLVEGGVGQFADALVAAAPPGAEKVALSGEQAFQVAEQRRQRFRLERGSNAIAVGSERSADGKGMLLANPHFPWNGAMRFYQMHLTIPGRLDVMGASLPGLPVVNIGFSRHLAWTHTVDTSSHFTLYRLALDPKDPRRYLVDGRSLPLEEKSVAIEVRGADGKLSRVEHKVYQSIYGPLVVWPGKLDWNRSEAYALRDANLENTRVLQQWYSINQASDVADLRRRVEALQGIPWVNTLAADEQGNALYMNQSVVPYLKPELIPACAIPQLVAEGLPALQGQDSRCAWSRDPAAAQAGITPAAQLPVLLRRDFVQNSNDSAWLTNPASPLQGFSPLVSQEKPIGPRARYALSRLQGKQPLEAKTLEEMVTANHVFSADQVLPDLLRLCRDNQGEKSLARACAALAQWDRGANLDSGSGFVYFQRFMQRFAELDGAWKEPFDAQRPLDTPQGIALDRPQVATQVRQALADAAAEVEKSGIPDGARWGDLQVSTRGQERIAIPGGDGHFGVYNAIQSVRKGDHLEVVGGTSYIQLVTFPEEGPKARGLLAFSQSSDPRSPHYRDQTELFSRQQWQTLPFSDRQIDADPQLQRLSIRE

[20] = cytotoxicity in HEK-293T cells, dose response, cytotoxicity control for TCR NF-kB inhibitor project, luminescence, T-cell screen hits (AID 489026); assay type: functional, cell-based;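 further: cells exposed to compound about 14 hours before the viability readout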
[21] = A549 cell cytotoxicity, dose response, cytotoxicity control, plate reader, cherry-pick, antagonist series (AID 743412); assay type: functional, cell-based
[22] = HepG2 cell cytotoxicity, dose response, cytotoxicity control, plate reader, cherry-pick, antagonist series (AID 743416); assay type: functional, cell-based
[23] = LGR2 antagonists, dose response, cell-based, HEK293, CRE-luciferase reporter, cherry pick, set 2 (AID 743343); assay type: functional;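 further: transfected cells were stimulated with diluted bursicon conditioned medium after compound addition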
[24] = MC4R antagonists, dose response, counter-screen for LGR2 antagonist project, cell-based, plate reader, cherry pick (AID 743444); assay type: functional;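 further: transfected HEK 293 cells stimulated with alpha-MSH peptide; potency of inhibitors of the alpha-MSH evoked signal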
[25] = HEK293 cell cytotoxicity, dose response, cytotoxicity control, plate reader, cherry-picked samples (AID 743446); assay type: functional, cell-based
[26] = Luminescence Cell-Based Dose Confirmation HTS to Identify Activators of 5'UTR Stem-Loop Driven Alpha-Synuclein mRNA Translation in H4 Neuroglioblastoma Cells. [Related pubchem assays: 1829 (Project Summary), 1814 (Primary HTS)]; assay type: functional
[27] = Luminescence Cell-Based Dose Response HTS to Identify Activators of Luciferase Translation or Activity in H4 […] Cells. [Related pubchem assays: 1829 (Project Summary), 1814 (Primary HTS)]; assay type: functional
H4 = assay: Luminescence Cell-Based Dose Response HTS to Identify Activators of 5'UTR Stem-Loop Driven Prion Protein mRNA Translation in H4 Neuroglioblastoma Cells. [Related pubchem assays: 1829 (Project Summary), 1814 (Primary HTS)]; assay type: functional; conditions: Homo sapiens

Sequence of Paired box protein Pax-8 (Q06710 whole entry): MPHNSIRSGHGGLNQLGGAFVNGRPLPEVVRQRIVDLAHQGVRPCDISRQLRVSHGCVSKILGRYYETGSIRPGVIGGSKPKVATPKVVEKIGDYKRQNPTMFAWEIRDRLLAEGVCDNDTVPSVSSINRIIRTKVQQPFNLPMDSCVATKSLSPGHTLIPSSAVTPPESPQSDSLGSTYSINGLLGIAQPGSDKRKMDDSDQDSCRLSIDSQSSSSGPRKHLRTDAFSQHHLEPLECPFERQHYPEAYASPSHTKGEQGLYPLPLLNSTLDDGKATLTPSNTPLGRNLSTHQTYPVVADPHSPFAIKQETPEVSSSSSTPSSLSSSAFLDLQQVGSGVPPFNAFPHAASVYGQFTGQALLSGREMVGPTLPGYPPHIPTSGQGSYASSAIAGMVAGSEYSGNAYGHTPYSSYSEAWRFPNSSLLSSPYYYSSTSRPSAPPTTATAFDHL

In the case of `Cc1ccc(-c2csc(NC3OC(=O)c4ccccc43)n2)cc1` (centres undefined), the AC50 (Paired box protein Pax-8) is reported as 7.58 µM (active), the AC50 [1] is reported as 33.7 µM (active) and the AC50 [2] is reported as 28.3 µM (active). The AC50 [3] was 17.3 µM (active), the AC50 [4] was 0.0641 µM (active) and the AC50 [5] was 23.1 µM (active). For the same compound, the AC50 [6] was 13 µM (active).
For `C(=N\Nc1nc2ccccc2[nH]1)/c1c[nH]c2ccccc12`, the AC50 [7] was 0.309 µM (active), the AC50 (HeLa) was 40 µM (active) and the IC50 [8] was 11.7 µM (inactive). For the same compound, the IC50 [9] was 34.8 µM (inactive), the IC50 [10] was 32.2 µM (inactive) and the CC50 [11] was 81.9 µM (active). For the same compound, the IC50 [12] was 35.8 µM (active).
In the case of `COc1ccc(/N=C/c2nc(-c3ccco3)oc2O)cc1`, the EC50 [13] is reported as > 91.2 µM (inactive) and the EC50 [14] is reported as > 91.2 µM (inactive).
With `O=C(C[C@H]1CC[C@@H]2[C@H](COC[C@@H](O)CN2C(=O)c2cnccn2)O1)NCc1ccc(Oc2ccccc2)cc1` the AC50 (HEK293) was 35.7 µM (active) and the AC50 [15] was 35.7 µM (active).
With `O=c1c(OC2OC(CO)C(O)C(O)C2OC2OC(CO)C(O)C(O)C2O)c(-c2ccc(O)cc2)oc2cc(O)cc(O)c12` (centres undefined) the IC50 [8] was 20.9 µM (inactive), the IC50 [9] was 83.3 µM (inactive) and the IC50 [10] was 38.8 µM (inactive).
In the case of `Cc1nc2c(-c3ccccc3)cnn2c(N)c1-c1ccccc1`, the CC50 [16] is reported as 17.2 µM (active), the EC50 [17] is reported as < 0.16 µM (active) and the IC50 [18] is reported as > 9.5 µM (active).
In the case of `C[C@@H]1CCCCO[C@@H](CN(C)S(=O)(=O)c2ccccc2)[C@H](C)CN([C@@H](C)CO)C(=O)c2cc(NC(=O)Nc3ccc(F)cc3)ccc2O1`, the AC50 (HEK293) is reported as 21.6 µM (active) and the AC50 [15] is reported as 21.6 µM (active).
With `Cc1nnsc1NC(=O)OCc1ccc(C(C)(C)C)cc1` the IC50 [18] was 10.4 µM (inactive).
In the case of `Cc1ccc2nc(-c3ccc4c(c3)OCCO4)cn2c1`, the AC50 [19] is reported as 1.27 µM (active), the IC50 [20] is reported as > 80 µM (inactive) and the AC50 [21] is reported as 2.56 µM (active). For the same compound, the AC50 [22] was 2.18 µM (active), the AC50 [23] was 0.366 µM (active) and the AC50 [24] was 0.527 µM (active). The AC50 [25] was 2.21 µM (active).
With `Nc1cc(C2CCCC2)nn1-c1ccccc1` the EC50 [26] was 0.13 µM (active), the EC50 [27] was 7.02 µM (active) and the EC50 (H4) was 6.8 µM (active). For the same compound, the EC50 [13] was > 91.2 µM (inactive) and the EC50 [14] was > 91.2 µM (inactive).
